Laboratory results as given in patent US20090192298A1, “Through-bond energy transfer cassettes, systems and methods” (priority 2007, published 2009).

Experiments:
Format in all cases: physicochemical
[1] = Spectral Properties of 9 in CH2Cl2, Table 3; design: emax: unit not given beside the values; details: for Ff: Rhodamine 101 in EtOH as the standard
[2] = Spectral properties (absorbance, fluorescence, quantum yield) of sulfonated BODIPY dyes 6, Table 1; details: for F: Fluorescein in 0.1M NaOH as standard
Text: A fluorophore, according to some embodiments of the disclosure, may have a high extinction coefficient and/or a sharp, intense fluorescence emission (e.g., rivaling that of the BODIPY dyes). A fluorophore may also have single molecule detection capacity.

[3] = Fluorescence properties of water-soluble Nile Blue derivatives in aqueous media; details: for quantum yields versus I and J: pH 7.4 in aqueous media; for fwmh less than reported water-soluble Nile Blue derivatives: phosphate buffer pH 7.4, versus I and J
Text: A dye may include, in some embodiments, one or more of Nile Blue derivatives 17-20 (FIG. 11).

[4] = Water solubility of through-bond energy transfer cassettes
[5] = 0.1M lithium phosphate buffer (pH = 7.4)

Structure (SMILES) | If [1] | Imax [1] | emax [1] | fwhm (full width at half-maximum height) [1] | Ff [1] | Imax abs ([2]; solvent MeOH) | Imax emiss ([2]; solvent MeOH) | e ([2]; solvent MeOH) | fwhm ([2]; solvent MeOH) | F ([2]; solvent MeOH) | further results
Cc1c(S(=O)(=O)[O-])c(C)n2c1C=C1C(=O)N(C)C(c3ccc(I)cc3)=[N+]1[B-]2(F)F.[Na+] [6g] | – | – | – | – | – | 488 nm | 531 nm | 48132 M⁻¹ cm⁻¹ | 53 nm | 0.88 ± 0.01 | Imax abs [2, 5]: 481 nm; Imax emiss [2, 5]: 518 nm; e [2, 5]: 46461 M⁻¹ cm⁻¹; fwhm [2, 5]: 50 nm; F [2, 5]: 0.87 ± 0.01
Cl.O=C(O)CCN(CCC(=O)O)c1ccc2nc3c4cc(O)ccc4c(=NCCCS(=O)(=O)O)cc-3oc2c1 [compound 18] | – | – | – | – | – | – | – | – | – | – | quantum yields versus I and J [3]: improved quantum yields; fwmh less than reported water-soluble Nile Blue derivatives [3]: 20 nm
CC1=[N+]2C(=Cc3c(C)cc(C)n3[B-]2(F)F)C(=O)N1C [6a] | – | – | – | – | – | 477 nm | 485 nm | 57286 M⁻¹ cm⁻¹ | 19 nm | 0.89 ± 0.01 | –
COc1ccc(C2=[N+]3C(=Cc4c(C)cc(C)n4[B-]3(F)F)C(=O)N2C)cc1 [6d] | – | – | – | – | – | 493 nm | 521 nm | 51269 M⁻¹ cm⁻¹ | 38 nm | 0.85 ± 0.03 | –
Cc1cc(C)n2c1C=C1C(=O)NC(c3ccccc3)=[N+]1[B-]2(F)F [6e] | – | – | – | – | – | 495 nm | 531 nm | 37867 M⁻¹ cm⁻¹ | 48 nm | 0.80 ± 0.01 | –
Cc1cc(C)n2c1C=C1C(=O)N(C)C(c3ccc([N+](=O)[O-])cc3)=[N+]1[B-]2(F)F [6f] | – | – | – | – | – | 492 nm | 598 nm | 44003 M⁻¹ cm⁻¹ | 120 nm | 0.0004 | Imax abs ([2]; solvent Hexanes): 498 nm; Imax emiss ([2]; solvent Hexanes): 587 nm; fwhm ([2]; solvent Hexanes): 53 nm; F ([2]; solvent Hexanes): 0.53 ± 0.01
CCN(CCCS(=O)(=O)O)c1ccc2nc3c4cc(O)ccc4c(=NCCCS(=O)(=O)O)cc-3oc2c1.Cl [compound 17] | – | – | – | – | – | – | – | – | – | – | quantum yields versus I and J [3]: improved quantum yields; fwmh less than reported water-soluble Nile Blue derivatives [3]: 20 nm
Cc1cc(C)n2c1C=C1C(=O)N(C)C(c3ccccc3)=[N+]1[B-]2(F)F [6b] | – | – | – | – | – | 490 nm | 521 nm | 58684 M⁻¹ cm⁻¹ | 46 nm | 0.87 ± 0.01 | –
COc1ccccc1C1=[N+]2C(=C(c3ccc(-c4cn(-c5ccc(C6=C7C(C)=C(S(=O)(=O)[O-])C(C)=[N+]7[B-](F)(F)n7c(C)c(S(=O)(=O)[O-])c(C)c76)cc5)nn4)cc3OCC(=O)O)c3ccc(-c4ccccc4OC)n3[B-]2(F)F)C=C1.[Na+].[Na+] [compound 22] | – | – | – | – | – | – | – | – | – | – | water solubility [4]: water soluble
Cc1c(S(=O)(=O)O)c(C)n2c1C=C1C(=O)N(C)C(c3ccc(C#CCCCC(=O)O)cc3)=[N+]1[B-]2(F)F [6h] | – | – | – | – | – | 488 nm | 538 nm | 35024 M⁻¹ cm⁻¹ | 58 nm | 0.84 ± 0.01 | Imax abs [2, 5]: 482 nm; Imax emiss [2, 5]: 526 nm; e [2, 5]: 34766 M⁻¹ cm⁻¹; fwhm [2, 5]: 56 nm; F [2, 5]: 0.82 ± 0.01
Cc1cc(C)n2c1C=C1C(=O)N(C)C(c3ccc(I)cc3)=[N+]1[B-]2(F)F [6c] | – | – | – | – | – | 492 nm | 532 nm | 57303 M⁻¹ cm⁻¹ | 54 nm | 0.86 ± 0.02 | –

Second part, led by results:

If [1] | Imax [1] | emax [1] | fwhm (full width at half-maximum height) [1] | Ff [1] | Imax abs ([2]; solvent MeOH) | Imax emiss ([2]; solvent MeOH) | e ([2]; solvent MeOH) | fwhm ([2]; solvent MeOH) | F ([2]; solvent MeOH) | Structure (SMILES) | further results
544 nm | 462 nm | 62044 | 52 nm | 0.90 ± 0.02 | – | – | – | – | – | CC(Nc1c2ccc(=[N+]3CCCCC3)cc-2oc2cc(N3CCCCC3)ccc12)C(=O)OC(C)(C)C.O=S(=O)([O-])C(F)(F)F (centres unmarked) [9d] | –
558 nm | 499 nm | 50978 | 41 nm | 0.11 ± 0.02 | – | – | – | – | – | CCN(CC)c1c2ccc(=[N+]3CCCCC3)cc-2oc2cc(N3CCCCC3)ccc12.O=S(=O)([O-])C(F)(F)F [9b] | –
619 nm | 598 nm | 82617 | 38 nm | 0.79 ± 0.02 | – | – | – | – | – | O=S(=O)([O-])C(F)(F)F.c1ccc(CSc2c3ccc(=[N+]4CCCCC4)cc-3oc3cc(N4CCCCC4)ccc23)cc1 [9e] | –
562 nm | 491 nm | 60409 | 55 nm | 0.14 ± 0.01 | – | – | – | – | – | O=S(=O)([O-])C(F)(F)F.c1cc2c(N3CCCCC3)c3ccc(=[N+]4CCCCC4)cc-3oc2cc1N1CCCCC1 [9a] | –
537 nm | 456 nm | 52423 | 52 nm | 0.85 ± 0.01 | – | – | – | – | – | CCC(C)Nc1c2ccc(=[N+]3CCCCC3)cc-2oc2cc(N3CCCCC3)ccc12.O=S(=O)([O-])C(F)(F)F (racemic) [9c] | –
552 nm | 482 nm | 54908 | 47 nm | 0.02 ± 0.001 | – | – | – | – | – | COC(=O)C1CCN(c2ccc3c(N4CCCCC4)c4ccc(=[N+]5CCC(C(=O)OC)CC5)cc-4oc3c2)CC1.O=S(=O)([O-])C(F)(F)F (centres unmarked) [9f] | –
